Results: publication PMC9312114, “Synthesis and Evaluation of Novel DNA Minor Groove Binders as Antiamoebic Agents” (Antibiotics, 2022)
In brackets after ≈: the same amount, converted by molar mass.

How the values were obtained:
Acanthamoeba castellanii [1] = assay: Amoebicidal assay; type: cell-based, Acanthamoeba castellanii genotype T4 (ATCC 50492); details: for viability at 50 µM / MIC50: Acanthamoeba castellanii; for viability at 50 µM: 24 h, negative control 100%, read-out: amoeba viability; for MIC50: read-out: MIC50 (minimum inhibitory concentration required to inhibit 50% of amoeba growth); for A. castellanii, 25 µM: Table 2, 25 µM; for A. castellanii, 25 µM / A. castellanii, 75 µM / A. castellanii, 100 µM: amoeba alone 100; for A. castellanii, 75 µM: Table 2, 75 µM; for A. castellanii, 100 µM: Table 2, 100 µM
Experimental: Acanthamoeba castellanii genotype T4 (ATCC 50492) was cultivated in 10 mL growth medium of peptone yeast glucose (PYG) in tissue flasks (Baig, et al., 2021; Anwar, et al., 2019). The growth medium, PYG, consists of 0.75% proteose peptone, 0.75% yeast extract, and 1.5% glucose. Next, the amoebae were kept in tissue flasks and incubated at 30 °C.
To determine the compounds’ antiamoebic effects, amoebicidal assays were conducted. The 5 × 10^5 amoebae were placed in a 24-well plate and brought to a final volume of 500 µL. […] The 24-well plate was then placed in a 30 °C incubator for 24 h. Positive and negative controls were added to the assay in order to ensure reliable results. Serving as the negative control was the amoebae alone, with RPMI [4]. Meanwhile, amoebae, along with 0.25% sodium dodecyl sulphate (SDS), were used as the positive control. Through the addition of 0.1% methylene blue, live and dead amoebae were distinguished. Additionally, significant compounds were identified by conducting a Student’s t-test with a two-tailed distribution. Furthermore, the MIC50 values of three compounds were determined by using concentrations of […], 75, and 100 µM.

Acanthamoeba castellanii [2] = assay: Encystation assay; type: cell-based; details: 16% glucose, 48 h, negative control 100% cysts
Experimental: The effects of the compounds on amoeba encystation were determined through the conduction of encystation assays. Briefly, 1 × 10^6 trophozoites were incubated with the compounds in a final concentration of 16% filter-sterilized glucose. Following a 48 h incubation period, 0.1% SDS was added per well for 20 min. The cysts were then counted by using a haemocytometer. To ensure accuracy, Acanthamoeba castellanii was cultured in 16% glucose, serving as the negative control.

[3] = system: Acanthamoeba castellanii cysts; assay: Excystation assay; type: cell-based; details: cysts in PYG, negative control 100%, read-out: viable trophozoites (re-emergence of cysts to trophozoites)
Experimental: Amoeba culture was suspended in 3 mL phosphate-buffered saline (PBS) and placed on non-nutrient bacteriological agar plates to allow for the growing of Acanthamoeba castellanii cysts. After two weeks, PBS was applied to plates containing amoeba cysts, which were then scraped off. The amoebae were centrifuged at 3000× g for 10 min, and the resulting pellet was resuspended in RPMI. The 5 × 10^5 cysts were then incubated in PYG, along with 50 µM of the compounds. To ensure accuracy, amoeba cysts in PYG alone were considered as the negative control, whereas amoeba cysts in RPMI alone were taken as the positive control, as the cysts would not be able to revert back to trophozoites. The amoeba trophozoites were then numbered by using a haemocytometer.

HeLa cells = assay: Cytotoxicity assay (LDH release); type: cell-based, human; details: for cytotoxicity against human HeLa cells: 50 µM, 24 h, LDH release, Triton X-100 = 100%
Experimental: HeLa cells were acquired from American Type Culture Collection (ATCC) of identification ATCC CCL-2, Singapore. The cells are utilized to conduct cytotoxicity and cytopathogenicity assays. Through their cultivation in complete media, the cells were grown, and then they were placed in a 95% humidifying incubator at 37 °C and 5% CO2. Complete medium comprises Roswell Park Memorial Media (RPMI), 1% penicillin–streptomycin, 1% minimum essential medium amino acids, 1% L-glutamine, and 10% fetal bovine serum (FBS). To determine the toxicity of the compounds against human HeLa cells, cytotoxicity assays were conducted. In short, HeLa cells were cultured in 96-well plates and treated with the compounds. The plate was then placed in a humidifying incubator with 95% humidity and 5% CO2, at 37 °C, for 24 h. After 24 h, the supernatant was collected, and the cytotoxicity of the compounds was determined through a cytotoxicity detection kit that measured the quantity of lactate dehydrogenase (LDH) release. Accurate results were ensured through the addition of positive and negative controls. Untreated HeLa cells served as the negative control, whereas HeLa cells treated with 1% Triton X-100 served as the positive control. Finally, the cytotoxic properties were numerically determined by following the necessary calculations: (absorbance of media from cells treated with the drugs—absorbance of media from cells of negative control)/(absorbance of media from cells of positive control—absorbance of media from cells of negative control) × 100 [19].

[4] = system: Acanthamoeba castellanii on HeLa cell monolayers; assay: Cytopathogenicity assay (amoeba-mediated host-cell death); type: cell-based; details: amoebae pretreated with 50 µM for 2 h, then 24 h on HeLa cells, negative control 100%
Experimental: Amoeba-mediated host-cell death was determined by treating 5 × 10^5 amoebae with 50 µM of compounds. The amoeba-containing plate was then placed in the incubator for 2 h at 30 °C. Following the 2 h incubation period, the treated amoebae were put on confluent HeLa cell monolayers. The plate containing the treated amoebae and HeLa cells was incubated for 24 h. Progressing the incubation period, the supernatant was collected, and the cytotoxicity was determined. Accurate results were ensured through the addition of negative and positive controls. The untreated amoebae, alone, on the cells served as the negative control, while the cells treated with Triton X-100 served as the positive control.

[5] = parameters: method as in PMID 35600289; details: cited from earlier work
[6] = parameters: method as in PMID 35600289; details: pH of 7; cited from earlier work
[7] = system: Acanthamoeba cysts and trophozoites; parameters: method as in PMID 9736540; details: 0.5 to 2.5% solution; cited from earlier work

Row | Molecule | viability at 50 µM (Acanthamoeba castellanii [1]) | cysts present (Acanthamoeba castellanii [2]) | viability at 50 µM [3] | cytotoxicity against human HeLa cells (HeLa cells) | amoeba-mediated host-cell death (cytotoxic activity due to amoeba) [4] | MIC50 (Acanthamoeba castellanii [1]) | A. castellanii, 25 µM (Acanthamoeba castellanii [1]) | A. castellanii, 75 µM (Acanthamoeba castellanii [1]) | A. castellanii, 100 µM (Acanthamoeba castellanii [1]) | pKa [5] | solubility in water [6] | antiamoebic activity [7] | toxic activity (positive control) (HeLa cells)
1 | CC(C)c1sc(NC(=O)c2cc(NC(=O)c3cc(NC(=O)c4cscn4)cn3C)cn2C)nc1C(=O)NCCCN(C)C [MGB4, N-(3-(dimethylamino)propyl)-5-isopropyl-2-(1-methyl-4-(1-methyl-4-(thiazole-4-carboxamido)-1H-pyrrole-2-carboxamido)-1H-pyrrole-2-carboxamido)thiazole-4-carboxamide] | 95.2% | 82.3% | 47.3% | 18.4% | 49.4% | – | – | – | – | – | – | – | –
2 | CN(C)CCCNC(=O)c1cc(NC(=O)c2cc(NC(=O)c3ccc(C#Cc4ccccc4)cc3)cn2C)cn1C [MGB26, N-(3-(dimethylamino)propyl)-1-methyl-4-(1-methyl-4-(4(phenylethynyl)benzamido)-1H-pyrrole-2-carboxamido)-1H-pyrrole-2-carboxamide] | 82.7% | 52.3% | 79.1% | 33.5% | 67.3% | – | – | – | – | – | – | – | –
3 | CN(C)CCCNC(=O)c1cc(NC(=O)c2cc(NC(=O)c3ccc(/C=C/c4ccccc4)cc3)cn2C)cn1C [MGB30, (E)-N-(3-(dimethylamino)propyl)-1-methyl-4-(1-methyl-4-(4-styrylbenzamido)-1H-pyrrole-2-carboxamido)-1H-pyrrole-2-carboxamide] | 63.4% | 27.8% | 78.1% | 34% | 87.3% | – | – | – | – | – | – | – | –
4 | Cn1cc(NC(=O)c2cc(NC(=O)c3cc4ccccc4oc3=O)cn2C)cc1C(=O)NCCCN1CCOCC1 [MGB16, 1-methyl-N-(1-methyl-5-{[3-(morpholin-4-yl)propyl]carbamoyl}-1H-pyrrol-3-yl)-4-(2-oxo-2H-chromene-3-amido)-1H-pyrrole-2-carboxamide] | 43.2% | 45.6% | 51.7% | 12.7% | 88.6% | – | – | – | – | – | – | – | –
5 | CC(C)c1sc(NC(=O)c2cc(NC(=O)c3cc(NC(=O)c4nccn4C)cn3C)cn2C)nc1C(=O)NCCCN(C)C [MGB3, N-(3-(dimethylamino)propyl)-5-isopropyl-2-(1-methyl-4-(1-methyl-4-(1-methyl-1H-imidazole-2-carboxamido)-1H-pyrrole-2-carboxamido)-1H-pyrrole-2-carboxamido)thiazole-4-carboxamide] | 76.2% | 83.5% | 64.3% | 16.2% | 41.5% | 65.9 µM (≈ 41 µg/mL) | 43.7 ± 3.8 | 51 ± 4.7 | 46 ± 4.8 | – | – | – | –
6 | Cn1cc(NC(=O)c2cc(NC(=O)c3ccc(C#Cc4ccccc4)cc3)cn2C)cc1C(=O)NCCCN1CCOCC1 [MGB28, 1-methyl-4-(1-methyl-4-(4-(phenylethynyl)benzamido)-1H-pyrrole-2-carboxamido)-N-(3-morpholinopropyl)-1H-pyrrole-2-carboxamide] | 97.2% | 29.6% | 40.6% | 13.7% | 91.9% | – | – | – | – | – | – | – | –
7 | Cn1cc(NC(=O)c2cc(NC(=O)CCSc3ccc4ccccc4c3)cn2C)cc1C(=O)NCCCN1CCOCC1 [MGB20, 1-methyl-4-(1-methyl-4-(3-(naphthalen-2-ylthio)propanamido)-1H-pyrrole-2-carboxamido)-N-(3-morpholinopropyl)-1H-pyrrole-2-carboxamide] | 81.9% | 39% | 96% | 31.4% | 83.2% | 83.6 µM (≈ 50.4 µg/mL) | 64 ± 3.2 | 54.6 ± 5.8 | 48 ± 1.1 | – | – | – | –
8 | Cn1cc(NC(=O)c2cc(NC(=O)c3ccc(/C=C/c4cnc5ccccc5c4)cc3)cn2C)cc1C(=O)NCCN1CCOCC1 [MGB-BP-3] | – | – | – | – | – | – | – | – | – | 5.26 | insoluble in water | – | –
9 | povidone-iodine | – | – | – | – | – | – | – | – | – | – | – | good amount of antiamoebic activity | –
10 | Triton X-100 [reference compound] | – | – | – | – | – | – | – | – | – | – | – | – | 100%
11 | Cn1cc(NC(=O)c2cc(NC(=O)c3ccc(/C=C/c4ccccc4)cc3)cn2C)cc1C(=O)NCCCN1CCOCC1 [MGB32, (E)-1-methyl-4-(1-methyl-4-(4-styrylbenzamido)-1H-pyrrole-2-carboxamido)-N-(3-morpholinopropyl)-1H-pyrrole-2-carboxamide] | 80.1% | 41.5% | 62.1% | 22.4% | 96.3% | – | – | – | – | – | – | – | –
12 | CN(C)CCCNC(=O)c1cc(NC(=O)c2cc(NC(=O)c3cc(NC(=O)c4cscn4)cn3C)cn2C)cn1C [MGB6, N-(5-((5-((5-((3-(dimethylamino)propyl]carbamoyl)-1-methyl-1H-pyrrol-3-yl)carbamoyl)-1-methyl-1H-pyrrol-3-yl}carbamoyl)-1-methyl-1H-pyrrol-3-yl)-1,3-thiazole-4-carboxamide] | 59.5% | 46.3% | 41.4% | 14.4% | 49.5% | 58.3 µM (≈ 33.8 µg/mL) | 57 ± 2.4 | 48 ± 5.5 | 45 ± 1.4 | – | – | – | –
13 | Cc1ccc(CSCCC(=O)Nc2cc(C(=O)Nc3cc(C(=O)NCCCN(C)C)n(C)c3)n(C)c2)cc1 [MGB22, N-(3-(dimethylamino)propyl)-1-methyl-4-(1-methyl-4-(3-((4-methylbenzyl)thio)propanamido)-1H-pyrrole-2-carboxamido)-1H-pyrrole-2-carboxamide] | 66.5% | 30.3% | 52.9% | 33.7% | 71.5% | – | – | – | – | – | – | – | –
